In patent US4767720A, “Antidigoxin antibodies” (HSC Research Development Corporation, priority 1985, dated 1988):
Entries after “also recorded” stand apart in the source; their conditions may differ.

Legend:
[1] = system: antibodies raised against ozonized digoxin-BSA; assay type: binding, rabbit; settings: for competition for 3H-digoxin binding / cross reaction with the new antibody: 3H-digoxin RIA, FIG. 7a and 7b; for cross-reactivity index: calculated from the molar concentration required to reduce the 3H-digoxin binding by 50%; for Digoxin apparent value measured by [3H]digoxin RIA: metabolite alone at the actual concentration of the line, actual digoxin 0
Procedure: The ^3 H-digoxin radioimmunoassay method was adapted from that previously described in Cerceo E. and Elloso CA (1972) Factors Affecting the Radioimmunoassay of Digoxin, Clin. Chem. 18, 539-542. Briefly, tubes containing 0-30 ng ^3 H-digoxin (3000 dpm) in PBS were incubated at room temperature for 15 mins in the presence of 1/20 diluted antidigoxin serum. Ice cold dextran coated charcoal was added and incubated at 4° C. for 10 mins. This mixture was centrifuged and the ^3 H-digoxin remaining in the supernate was counted in a liquid scintillation spectrometer. Controls in the absence of serum and for non-immune serum were performed in parallel.
The degree of cross reactivity of the digoxin metabolites was monitored using the ^3 H-digoxin radioimmunoassay.

[2] = system: antibodies generated against periodate-oxidized digoxin-BSA conjugate; assay type: binding; settings: metabolite alone at the actual concentration of the line, actual digoxin 0
Description: A comparison was made between the antiserum of Example 4 and the commercially available antidigoxin serum using FPIA (fluorescence polarization immuno assay) to measure the digoxin concentration for solutions containing known levels of the digoxin metabolites as identified in the following Table 3.

[3] = system: commercial antidigoxin antibodies raised against BSA periodate conjugated digoxin; assay: 125I-digoxin RIA using commercial antidigoxin antibodies (whole serum or affinity purified); assay type: binding; settings: for Concentration Measured by RIA Using Affinity Purified Antibody: antibody affinity purified from the same immune serum; for Concentration Measured by RIA Using whole Serum: commercial antidigoxin antibodies, true concentration of antigen given
Procedure: Antidigoxin antibodies raised against BSA periodate conjugated digoxin were purchased from Antibodies Incorporated (Davis, Calif.) and Wien Laboratories (Succasunna, N.J.). Antidigoxin activity was determined using the ^125 I-digoxin radioimmune assay as previously described. Soldin, S; Papanastasion-Diamand, A; Heyes, J;, Lingwood C. A. and Olley, P. (1984) Are Immunoassays for Digoxin Reliable? Clin. Biochem. 17, 317-320. The immune serum was precipitated with 40% ammonium sulfate. The precipitate was redissolved and dialysed against phosphate buffered saline pH 7.4 (PBS). Antidigoxin antibodies were further purified by immunoaffinity chromatography. Digoxin was covalently linked to agarose by use of a photoactive heterobifunctional crosslinking agent as described in Lingwood, C. A. (1984) Production of Glycolipid Affinity Matrices by Use of Heterobifunctional Crosslinking Agents, J. Lipid Res. 25, 1010-1012. Amino hexyl agarose was treated with 2 mM hydroxysuccinimidyl azidobenzoate in the dark for 1 hour at room temperature. The beads were washed with water and 2 mg ^3 H-digoxin (1 mg/ml enthanol/water 1:1) was added. The beads were rotoevaporated to dryness when the digoxin was absorbed onto the beads. The dry beads were then irradiated for 2 min/1 cm from a Mineralight II UV source with stirring, when the digoxin is covalently attached to the agarose beads. The matrix was washed with 100 column volumes 50% ethanol and 50 column volumes water. The wash fractions were concentrated and unbound ^3 H-digoxin was measured. The amount of digoxin coupled/ml agarose was calculated (0.2 μmoles/ml beads).
The immunoglobulin fraction from 1 ml immune serum was applied and the digoxin column was washed with PBS. Antidigoxin activity was measured using the automated ^125 I-RIA method. […] Specific antibodies were eluted by addition of 10 ml 1M KI followed by 10 ml 1M KSCN. The eluted fractions were dialysed, concentrated vs sucrose, dialysed and used in the RIA.
Cross-reactivity of commercial antidigoxin antibodies towards the digoxin metabolites in which one, two and three sugars have been removed (digoxigenin bisdigitoxoside, monodigitoxoside and […] respectively) was measured. […] Purification of the antidigoxin antibodies by affinity chromatography considerably reduces this cross reactivity such that the metabolites are now recognized on a one to one basis relative to digoxin.

[4] = system: antidigoxin antibody raised against a bovine serum albumin-digoxin conjugate immunogen; settings: background statement on prior-art antibodies; cited from earlier work

Row | Structure (SMILES) | competition for 3H-digoxin binding / cross reaction with the new antibody [1] | cross-reactivity index [1] [%] | Digoxin apparent value measured by [3H]digoxin RIA [1] [nmol/L] | Digoxin apparent value measured by FPIA [2] [nmol/L] | Concentration Measured by RIA Using Affinity Purified Antibody [3] [nmol/L] | Concentration Measured by RIA Using whole Serum [3] [nmol/L] | cross-reactivity with the antibodies [4]
1 | C[C@H]1O[C@@H](O[C@H]2[C@@H](O)C[C@H](O[C@H]3[C@@H](O)C[C@H](O[C@H]4CC[C@@]5(C)[C@H](CC[C@@H]6[C@@H]5CC[C@]5(C)[C@@H](C7=CC(=O)OC7)CC[C@]65O)C4)O[C@@H]3C)O[C@@H]2C)C[C@H](O)[C@@H]1O [Digitoxin] | considerable reduced reactivity | 11 | 0 | 9.6 |  |  | 
2 | C[C@H]1O[C@@H](O[C@H]2[C@@H](O)C[C@H](O[C@H]3CC[C@@]4(C)[C@H](CC[C@@H]5[C@@H]4C[C@@H](O)[C@]4(C)[C@@H](C6=CC(=O)OC6)CC[C@]54O)C3)O[C@@H]2C)C[C@H](O)[C@@H]1O [Digoxigenin bisdigitoxide, digoxigenin bisdigitoxide] |  | 14.6 | 0.8 | 6.05 | 6.3 | 25.2 | react with the antibodies
3 | C[C@H]1O[C@@H](O[C@H]2CC[C@@]3(C)[C@H](CC[C@@H]4[C@@H]3C[C@@H](O)[C@]3(C)[C@@H](C5=CC(=O)OC5)CC[C@]43O)C2)C[C@H](O)[C@@H]1O [Digoxigenin monodigitoxide] |  | 3.7 | 0.7 | 10 | 5.0 | 24.3 | react with the antibodies
4 | C[C@]12CC[C@H](O)C[C@H]1CC[C@@H]1[C@@H]2C[C@@H](O)[C@]2(C)[C@@H](C3=CC(=O)OC3)CC[C@]12O [Digoxigenin] | ineffective antigen |  | 0 | 13.8 | 6.9 | 25.2 | react with the antibodies
5 | C[C@]12CC[C@H](O)C[C@H]1CC[C@@H]1[C@@H]2C[C@@H](O)[C@]2(C)[C@@H](C3COC(=O)C3)CC[C@]12O (stereo partly shown) [Dihydrodigoxigenin] |  |  |  |  | 0.8 | 0.8 | little or no cross-reactivity
6 | C[C@@H](O)[C@@H](O)[C@@H](O)CC=O [digitoxose] | does not compete for digoxin binding; also recorded: does not cross react at all |  |  |  |  |  | 
7 | CC1OC(OC2C(O)CC(OC3C(O)CC(OC4CCC5(C)C(CCC6C5CC(O)C5(C)C(C7=CC(=O)OC7)CCC65O)C4)OC3C)OC2C)CC(O)C1O (stereo not shown) [digoxin, Digoxin] | effectively competed out |  |  |  |  |  | 
8 | CC1OC(OC2C(O)CC(OC3C(O)CC(OC4CCC5(C)C(CCC6C5CC(O)C5(C)C(C7COC(=O)C7)CCC65O)C4)OC3C)OC2C)CC(O)C1O (stereo not shown) [dihydrodigoxin] |  |  |  |  |  |  | little or no cross-reactivity
